Square brackets hold non-standard residues; d marks the D form. Peptide text beside a SMILES is read from it.
Experiments:
[1] = system: Primary Rat Whole Blood Cells; experiment: Cytokine release in rat whole blood stimulated with LPS or PMA+ionomycin; assay type: cell-based; settings: 10 μM inhibitor, PMA+ionomycin 25/500, 50/750, 50/1000 ng/mL, 4 h
Method: Given are the results for the control, 1 μM of SEQ ID NO: 172, 3 μM of SEQ ID NO: 172, and 10 μM of SEQ ID NO: 172 at different levels of LPS (ng/ml).
FIG. 17 Dose dependent inhibition of IL-2 release in rat whole blood stimulated with PMA+ionomycin. JNK inhibitor with SEQ ID NO: 172 was added at three different concentrations, namely 1, 3 and 10 μM 1 h before stimulation with PMA+ionomycin. Three doses of activators were added (25/500 ng/mL, 50/750 ng/mL and 50/1000 ng/mL) for 4 h. IL-2 release was assessed in supernatant.
Whole blood is collected from anesthetized rat or human healthy volunteers using a venipuncture connected to a pre-labeled vacuum tube containing sodium citrate. Tubes are gently mixed by inversion 7-8 times; and are then kept at RT until stimulation. JNK inhibitor of SEQ ID NO: 172 is prepared 6 times concentrated in PBS, and 30 μl/well of mix is added into 96-well plate. Whole blood is diluted by 1:2 in PBS and 120 μl of diluted blood is added in each well where either PBS alone or JNK inhibitor of SEQ ID NO: 172 has been previously added. Whole blood is incubated at 37° C.; 85 rpm (Stuart Orbital incubator SI500) for 60 min. […] Cytokine (IL-6, IL-2, IFNγ and TNFα) were then measured using standard Elisa kits (e.g. from R&D Systems: DuoSet Elisas; or from BD Biosciences: BD Opteia Set Elisa). Results are expressed as pg/ml of supernatant of the measured cytokine. […]

[2] = system: endotoxins-induced uveitis albino rat model; experiment: Endotoxins-induced uveitis (EIU), single intravenous injection, clinical scoring 24 h after LPS; assay type: in vivo; set-up: key to EIU clinical score, median: clinical score per eye, 0 to 4 scale; settings: for EIU clinical score, mean±SEM / EIU clinical score, median: 24 hours after LPS
Method: The aim of this study was to determine the effects of single intravenous injections of SEQ ID NO: 172 (0.015, 0.18, and 1.80 mg/kg) on the inflammatory response in an endotoxins-induced uveitis albino rat model and to compare these affects to those obtained with prior art JNK inhibitor of SEQ ID NO: 197 (2 mg/kg). As a further control served phosphate sodic dexamethasone.
Sixty (60) male Lewis rats were randomly divided into six (6) groups of ten (10) animals each. EIU was induced by footpad injection of lipopolysaccharide (LPS, 1 mg/kg). NaCl (0.9%), SEQ ID NO: 197 at 2 mg/kg and SEQ ID NO: 172 at three concentrations (1.80 mg/kg, 0.18 mg/kg and 0.015 mg/kg) were administered by intravenous injection. Phosphate sodic dexamethasone (20 μg/eye) was administered by sub-conjunctival injection in both eyes. 24 hours after LPS injection, inflammatory response was evaluated by clinical scoring.
The intensity of clinical ocular inflammation was scored on a scale from 0 to 4 for each eye: […]

[3] = system: mouse model of scopolamine-induced dry eye; experiment: Scopolamine-induced dry eye in mice (TBUT, PRTT, histopathology); assay type: in vivo; settings: for TBUT mean nadir: TID topical ocular
Source text: The objective of this study was to assess the effects of two different compounds, the all-D-retro-inverso JNK-inhibitor (poly-)peptide of SEQ ID NO: 197 and the JNK inhibitor (poly-)peptide of SEQ ID NO: 172, at three dose levels in a mouse model of scopolamine-induced dry eye.
The study consisted of a total of 9 groups of female C57BL/6 mice, comprising 8 groups of 12 mice each and an additional group of 4 mice. Bilateral short-term dry eye was induced by a combination of scopolamine hydrobromide (Sigma-Aldrich Corp., St. Louis, Mo.) injection (subcutaneous (SC), four times daily, 0.5 mg/dose, Days 0-21) and by exposing mice to the drying environment of constant air draft. […] Mice of Group 9 were maintained as un-induced, (no dry eye) untreated controls.
During the in-life (treatment) period, clinical observations were recorded once daily; slit-lamp examination (SLE) with corneal fluorescein staining, tear break-up time test (TBUT), and phenol red thread test (PRTT) were performed three times per week. Necropsies were performed on Day 22; eyes, eye lids, conjunctivae, and lacrimal glands were collected from both eyes of each animal. Tissues from the right eyes (oculus dexter, OD) were fixed and then evaluated microscopically. Tissues from the left eyes (oculus sinister; OS) were flash-frozen in liquid nitrogen and stored frozen at −80° C. for possible subsequent analyses.
The TBUT test was conducted three times weekly by measuring the time elapsed in seconds between a complete blink after application of fluorescein to the cornea and the appearance of the first random dry spot in the tear film. […] At least ninety seconds later, corneal epithelial damage was graded using a slit-lamp with a cobalt blue filter after another drop of 0.1% fluorescein was reapplied to the cornea; the cornea then was scored per the Draize ocular scale.
Tear production was measured three times a week in both eyes using PRTT test strips (Zone-Quick; Menicon, Nagoya, Japan). Prior to the first treatment of the day, a thread was applied to the lateral canthus of the conjunctival fornix of each eye for 30 seconds under slit-lamp biomicroscopy. Tear migration up the tread (i.e., the length of the wetted cotton thread) was measured using a millimeter scale.
At necropsy on Day 22, both eyes from each animal, including the globes, lacrimal glands, eyelids, and conjunctivae, were excised. The right eye and associated tissues were fixed by overnight submersion in modified Davidson's solution followed by transfer to 10% neutral buffered formalin (NBF). The fixed tissues of the right eye were dehydrated, embedded in paraffin, sectioned at 3 to 5-μm thicknesses, and slide-mounted tissues were stained with hematoxylin and eosin (H & E). Stained slides were evaluated via light microscopy. Detailed and complete histopathologic assessment was conducted on all parts of the eye, with at least two section levels being examined histopathologically for each right eye. Special attention was paid to the cornea, epithelia (including goblet cells) of the conjunctiva and cornea, as well as the lacrimal gland. These tissues were scored for injury based upon a 0-4 scale, with 0 being normal, 1 being minimal, 2 being mild, 3 being moderate, and 4 being severe. For each cornea, scores were based on corneal epithelium thickness, and corneal inflammation. Conjunctivae were scored for erosion and inflammation as well as presence or absence of goblet cells.

CC(C)C[C@H](NC(=O)[C@H](CC(N)=O)NC(=O)[C@H](CC(C)C)NC(=O)[C@@H](NC(=O)[C@@H](C)NC(=O)[C@@H]1CCCN1C(=O)[C@H](CCCNC(=N)N)NC(=O)[C@@H](CCCCN)NC(=O)[C@@H]1CCCN1C(=O)[C@H](CCCNC(=N)N)NC(=O)[C@@H](CCCNC(=N)N)NC(=O)[C@H](CCCNC(=N)N)NC(=O)[C@H](CCCNC(=N)N)NC(=O)[C@H](CCC(N)=O)NC(=O)[C@@H](CCCNC(=N)N)NC(=O)[C@H](CCCNC(=N)N)NC(=O)[C@H](CCCCN)NC(=O)[C@H](CCCCN)NC(=O)[C@H](N)CCCNC(=N)N)[C@@H](C)O)C(=O)N[C@H](Cc1ccccc1)C(N)=O [SEQ ID NO: 172, rKKRrQRRrRPkRPaTLNLf] (H-[dR]KKR[dR]QRR[dR]RP[dK]RP[dA]TLNL[dF]-NH2)
PMA-iono-induced IL-2 release [1]: efficiently reduce
EIU clinical score, mean±SEM ([2]; 0.015 mg/kg i.v.): 2.3±0.3
EIU clinical score, median ([2]; 0.015 mg/kg i.v.): 2
EIU clinical score, mean±SEM ([2]; 0.18 mg/kg i.v.): 2.4±0.3
EIU clinical score, median ([2]; 0.18 mg/kg i.v.): 2
EIU clinical score, mean±SEM ([2]; 1.80 mg/kg i.v.): 2.1±0.3
EIU clinical score, median ([2]; 1.80 mg/kg i.v.): 2
endotoxin-induced inflammation in the anterior chamber ([2]; intravenously injected at 0.015, 0.18, 1.80 mg/kg): also reduced the endotoxin-induced inflammation in the anterior chamber
TBUT mean nadir ([3]; Day 7, high-dose 0.6% (Group 7)): 6.7 ± 0.3 s
TBUT mean nadir ([3]; Day 7, low-dose 0.05% (Group 5)): 6.6 ± 0.4 s
TBUT mean nadir ([3]; Day 7, mid-dose 0.2% (Group 6)): 6.7 ± 0.4 s
TBUT mean peak ([3]; Day 9, high-dose 0.6% (Group 7)): 9.9 ± 0.8 s
TBUT mean peak ([3]; Day 9, low-dose 0.05% (Group 5)): 8.0 ± 0.4 s
TBUT mean peak ([3]; Day 9, mid-dose 0.2% (Group 6)): 10.0 ± 0.7 s
PRTT, aqueous tear production compared with cyclosporine ([3]; Day 21, mid and high-dose (Groups 6 and 7)): therapeutic effects similar to cyclosporine
TBUT means compared with vehicle group ([3]; low, medium and high-dose, Groups 2, 3 and 4): above the vehicle group
aqueous tear production (PRTT) compared with vehicle ([3]; low, mid or high-dose SEQ ID NO: 172): significantly more aqueous tears compared to vehicle-treated animals
histological cornea scores compared with cyclosporine group ([3]; mid and high-dose SEQ ID NO: 172 (Groups 6, 7), high-dose SEQ ID NO: 197 (Group 4)): not significantly different than the cyclosporine group scores
